Source: paper PMC5655428, “Discovery and pharmacological characterization of a new class of prolyl-tRNA synthetase inhibitor for anti-fibrosis therapy” (PLoS ONE, 2017)

How the values were obtained:
[1] = mouse, in vivo
Procedure: The experimenters were blinded to the treatments given to the animals and to the biochemical and histological analyses and the data analyses. Eight-week-old C3H/He male mice (weighing 23~28 g, Japan SLC, Inc., Hamamatsu, Japan) were used for all the in vivo experiments. […] These animals were maintained on a 12/12 h light/dark cycle with constant temperature (23 ± 2°C) under specific pathogen-free conditions. Standard chow diet and water were available ad libitum.
After acclimatization for 1 weeks, animals were randomly divided according to body weight and treated for 3 to 5 consecutive days as follows. The ear and dorsal skin of mouse were intradermally injected with 20 μL (100 μL, dorsal skin) PBS or 500 ng TGF-β in PBS under anaesthesia with 3–4% sevoflurane. Injections were continued in this manner daily for 3 days (days 0, 1 and 2) or 5 days (days 0, 1, 2, 3 and 4). Treatment protocol included the daily topical application of T-3833261 or HF cream on the ear (40 μL/ear) 1 h before injections into the ear. A vehicle without compounds was applied to control mice. The topical material contained sorbitan sesquioleate (50 g), lanolin (50 g), liquid paraffin (250 g), propylene glycol (50 g), 90% lactic acid (1.5 g), T-3833261 (0.1, 0.3 and 1 g) or HF (0.1 g), and distilled water as the rest material. Topical application of compound was continued for 7 days. Mice were euthanized by cervical dislocation under sevoflurane anesthesia at 3 or 5 days after last TGF-β injection and the ear surrounding the TGF-β injection site was harvested with 8 μm biopsy punch under anesthesia.

human skin fibroblast = assay: Transcriptome analysis (AmpliSeq) and gene signature analysis; assay type: cell-based; details: 300 nM, 24 h; >1.2-fold change, FDR < 0.05
Procedure: The Ion AmpliSeq Transcriptome Human Gene Expression Kit (ThermoFisher, Waltham, MA, USA) enables the simultaneous measurement of the expression levels of over 20,000 human genes in a single assay. AmpliSeq human-transcriptome libraries were constructed and sequenced by using the Ion Proton platform, according to the manufacturer’s instructions. Briefly, total RNA was extracted from human skin fibroblast treated with compounds for 24 h using the RNeasy Mini Kit. Reverse transcription was performed on 10 ng of the prepared total RNA samples using the AmpliSeq Whole Transcriptome primers with the included SuperScript® VILO^TM cDNA Synthesis kit (Life Technologies). Amplicons were ligated to adapters, and the resulting libraries were purified using Agencourt AMPure XP reagents (Beckman Coulter, Brea, CA, USA) and diluted to the concentration of 75 pM. Templated libraries were sequenced with the Ion Proton sequencer (ThermoFisher). AmpliSeq sequencing data were analyzed using the Ion Torrent Mapping Alignment Program. Identification of differentially expressed genes (DEGs) and comparative gene signature analysis were done in NextBio (http://nextbio.com). Gene expression data was taken by using our ATP-competitive PRS inhibitor analog (IC50: < 3.0 nM). […]

human PRS = target: T1, human PRS (Homo sapiens, UniProt P07814); assay: ATP/PPi exchange assay (PRS enzymatic inhibition); assay type: biochemical; details: ATP/PPi exchange method; duplicate
T1 construct: His-Avi-tag (N); made in house; host or cells: E. coli BL21 (DE3)
T1 sequence (P07814 998-1512): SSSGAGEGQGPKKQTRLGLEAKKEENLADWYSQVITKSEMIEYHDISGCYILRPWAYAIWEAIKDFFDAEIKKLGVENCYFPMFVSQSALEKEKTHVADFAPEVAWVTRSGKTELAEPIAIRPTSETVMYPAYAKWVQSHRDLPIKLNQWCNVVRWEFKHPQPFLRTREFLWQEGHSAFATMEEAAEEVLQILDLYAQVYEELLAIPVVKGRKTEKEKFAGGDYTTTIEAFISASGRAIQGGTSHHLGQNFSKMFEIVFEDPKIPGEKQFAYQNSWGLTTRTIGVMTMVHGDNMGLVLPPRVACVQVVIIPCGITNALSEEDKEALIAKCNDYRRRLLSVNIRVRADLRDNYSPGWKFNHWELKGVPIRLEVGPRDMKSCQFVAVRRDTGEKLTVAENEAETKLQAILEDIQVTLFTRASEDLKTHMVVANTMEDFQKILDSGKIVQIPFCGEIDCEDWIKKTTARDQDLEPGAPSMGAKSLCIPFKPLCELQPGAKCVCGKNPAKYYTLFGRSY
Procedure: The expression plasmid of human PRS (residues 998–1512, Genbank Accession No. NM_152621) was constructed in a pET21a vector (Novagen, San Diego, CA, USA) to express in E.coli BL21 (DE3) (Nippongene, Tokyo, Japan) as a fusion protein with His-Avi-tag at N-terminus. After culture, the cells were homogenized in a lysis buffer containing 50 mM Tris-HCl (pH 8.0 at 25°C), 150 mM NaCl, 5 U/mL Benzonase, 20 mM imidazole, and 1 mM DTT. Cell homogenates were centrifuged, and the supernatant was applied to NiNTA purification, followed by gel filtration with Superdex200. Proteins were stored in a buffer containing 50 mM Tris-HCl (pH 8.0 at 25°C), 150 mM NaCl, 10% glycerol, and 1 mM DTT at -80°C. The protein concentration was determined with the BCA Protein Assay Kit (Pierce Biotechnology, Inc., Rockford, IL, USA) according to the instruction manual.
The test compounds were dissolved in 5 μL of an assay buffer [50 mM Tris-HCl (pH 7.5), 20 mM KCl, 1 mM DTT, and 0.01% Tween 20] and incubated with 5 μL of 40 nM PRS enzyme dissolved in the assay buffer supplemented with 40 mM MgCl2 for 60 minutes. […] Radioactivities were measured using the TopCount detector (PerkinElmer).
The inhibitory activity was calculated as follows: % inhibition = (A—B) / (A—C) × 100, where, A, B, and C are signals with vehicle, test sample, and without reaction, respectively. […]

27 kinases = assay: kinase panel experiment; assay type: biochemical; details: almost no inhibitory activity, read-out: IC50 against 27 kinases

SMILES | Body weight day 0 [1] [g] | Body weight day 7 [1] [g] | body weight of the mice after one week of continuous topical application [1] | number of genes with altered expression levels compared to vehicle-treated cells (human skin fibroblast) [genes] | IC50 (human PRS) [nM] | IC50 (27 kinases) [nM]
O=C(CC1NCCCC1O)Cn1cnc2cc(Br)c(Cl)cc2c1=O (stereo not shown) [HF, Halofuginone, reference compound] | 22.5 ± 0.3 | 23.7 ± 0.3 | did not change | 8229 | 8.7 | 
Cn1cc(-c2cc(F)cc(CNC(=O)c3nccc4nc(C5CCCC5)[nH]c34)c2)cn1 [T-3833261, 2-Cyclopentyl-N-(3-fluoro-5-(1-methyl-1H-pyrazol-4-yl)benzyl)-3H-imidazo[4,5-c]pyridine-4-carboxamide] |  |  |  |  | 3.6 | > 1000
